Test results: ChEMBL document CHEMBL1938362, “Synthesis and properties of molecular probes for the rescue site on mutant cystic fibrosis transmembrane conductance regulator” (J Med Chem, 2011)

What was measured:
BHK = assay: Modulation of CFTR F508 deletion mutant expressed in BHK cells assessed as increase in forskolin-stimulated iodine influx at 10 uM after 5 mins […] (reference value: 1.4 +/- 0.4 nM/s); assay type: cell-based
[1] = test system: Cystic fibrosis transmembrane conductance regulator (Homo sapiens), P13569 [G551D]; assay: Modulation of C-terminal His10-tagged CFTR G551D mutant in liposomes of egg phosphatidylcholine assessed as increase in iodine influx at 10 uM after 5 mins […] in presence of protein kinase A and valinomycin relative to control
Chain of Cystic fibrosis transmembrane conductance regulator (Homo sapiens), P13569 [G551D] (P13569 whole entry G551D): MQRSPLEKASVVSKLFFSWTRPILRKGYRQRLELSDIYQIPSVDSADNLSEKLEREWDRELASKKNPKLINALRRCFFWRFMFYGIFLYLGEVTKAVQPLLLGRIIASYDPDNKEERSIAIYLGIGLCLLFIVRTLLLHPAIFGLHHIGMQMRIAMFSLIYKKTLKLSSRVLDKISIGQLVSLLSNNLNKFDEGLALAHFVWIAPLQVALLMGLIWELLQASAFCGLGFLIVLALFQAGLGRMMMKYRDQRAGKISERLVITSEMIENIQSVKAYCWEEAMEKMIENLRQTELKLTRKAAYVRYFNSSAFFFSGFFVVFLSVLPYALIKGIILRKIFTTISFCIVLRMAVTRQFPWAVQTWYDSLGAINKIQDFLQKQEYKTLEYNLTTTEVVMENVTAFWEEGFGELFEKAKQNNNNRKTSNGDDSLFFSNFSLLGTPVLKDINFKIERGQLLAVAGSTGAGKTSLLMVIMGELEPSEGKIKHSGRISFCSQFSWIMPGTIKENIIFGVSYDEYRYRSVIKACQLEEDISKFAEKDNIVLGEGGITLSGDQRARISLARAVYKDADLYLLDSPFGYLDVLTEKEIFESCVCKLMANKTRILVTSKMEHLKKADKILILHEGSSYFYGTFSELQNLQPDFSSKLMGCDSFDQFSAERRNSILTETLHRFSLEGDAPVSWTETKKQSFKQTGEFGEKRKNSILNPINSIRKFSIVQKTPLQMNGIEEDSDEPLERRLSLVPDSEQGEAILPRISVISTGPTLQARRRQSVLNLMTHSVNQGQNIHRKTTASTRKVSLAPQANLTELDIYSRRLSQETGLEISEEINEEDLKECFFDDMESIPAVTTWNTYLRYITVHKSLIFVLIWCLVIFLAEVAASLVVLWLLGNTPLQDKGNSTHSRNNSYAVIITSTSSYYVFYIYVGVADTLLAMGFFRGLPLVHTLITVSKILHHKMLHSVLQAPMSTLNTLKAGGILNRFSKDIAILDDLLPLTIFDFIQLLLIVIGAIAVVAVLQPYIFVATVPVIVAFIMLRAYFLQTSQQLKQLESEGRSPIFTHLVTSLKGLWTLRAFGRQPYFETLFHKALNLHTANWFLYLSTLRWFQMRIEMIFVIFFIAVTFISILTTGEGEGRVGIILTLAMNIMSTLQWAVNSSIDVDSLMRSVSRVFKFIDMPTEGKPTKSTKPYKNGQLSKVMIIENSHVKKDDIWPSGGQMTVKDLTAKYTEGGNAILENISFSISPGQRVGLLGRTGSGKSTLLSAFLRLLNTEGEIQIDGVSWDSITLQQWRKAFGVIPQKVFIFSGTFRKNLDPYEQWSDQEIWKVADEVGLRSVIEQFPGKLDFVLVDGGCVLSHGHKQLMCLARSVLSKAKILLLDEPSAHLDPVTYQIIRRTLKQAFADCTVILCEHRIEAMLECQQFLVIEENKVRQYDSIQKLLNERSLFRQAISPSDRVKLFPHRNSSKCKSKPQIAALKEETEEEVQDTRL

Row | Structure (SMILES) | Activity (BHK) | Activity [1]
1 | Cc1ccc(O)c(-c2cc(-c3ccc(N)cc3)[nH]n2)c1 | 5.1 nM/s | 
2 | Cc1ccc(O)c(-c2cc(-c3ccc(C#CCNS(=O)(=O)c4cccc5c(N(C)C)cccc45)cc3)[nH]n2)c1 | 1.7 nM/s | 11.2 nM/s
3 | Cc1ccc(O)c(-c2cc(-c3ccc(I)cc3)[nH]n2)c1 | 5.1 nM/s | 
4 | Cc1ccc(O)c(-c2cc(-c3ccc([N+](=O)[O-])cc3)[nH]n2)c1 | 5.1 nM/s | 
5 | Cc1ccc(O)c(-c2cc(-c3ccccc3)[nH]n2)c1 | 9.9 nM/s | 16.9 nM/s
6 | Cc1ccc(O)c(-c2cc(-c3ccc(N=[N+]=[N-])cc3)[nH]n2)c1 | 5.1 nM/s | 
